One assay deals with NanoLuc® Luciferase (Oplophorus gracilirostris, UniProt Q9GV45, A31E/A60N/A81I/F95D/I117V/K70R/L54V/L99Q/M102K/N193R/P142E/Q151K/Q38R/Q45L/V71I/Y165I). Type of assay: biochemical. The note with it: ratio to coelenterazine (=1); for I (relative light units, ratio in comparison to native coelenterazine): initial light output three minutes after substrate addition; for Half-life (signal half-life, ratio in comparison to native coelenterazine): read at five minute intervals. As to the method: (§1) Luminescence Assay Procedure: Each compound to be screened was dissolved in DMSO (5 mM) and then further diluted to 100 uM in NANO-GLOR Luciferase Assay Buffer. Each diluted substrate was then combined in equal volumes with purified NanoLuc® Luciferase diluted into CO2 independent media+10% FBS. Initial light output for each substrate was measured in a GloMax®-Multi+ luminometer three minutes after substrate addition and then at five minute intervals as a means to determine signal half-life.
NanoLuc® Luciferase, sequence (Q9GV45 other isoform, or with tags, fused parts or gaps with the stated changes): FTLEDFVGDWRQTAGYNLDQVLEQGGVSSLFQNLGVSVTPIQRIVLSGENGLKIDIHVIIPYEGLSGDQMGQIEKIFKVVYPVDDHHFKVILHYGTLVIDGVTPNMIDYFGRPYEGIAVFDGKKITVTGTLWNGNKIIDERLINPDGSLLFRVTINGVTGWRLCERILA
A subset of the synthesized coelenterazine analogues (compounds of formula (I)) were evaluated for their suitability as luciferase substrates. NANOLUC® luciferase was employed for the screening because it is a small (19 kDa), stable, and particularly bright enzyme.

A further assay has as its system luciferase. As to the kind of experiment: Additional luciferase substrate assay, compared to known analogue C-1 (Table 3). Type of assay: biochemical. The conditions noted are these: relative to C-1 (=1). As to the method: as §1
The compounds of formula (I) were also evaluated for their ability to be luciferase substrates in an additional assay.

The results in this text go back to patent publication US11015216B2, “Substituted imidazo[1,2-a]pyrazines as luciferase substrates” (PROMEGA CORPORATION, priority 2016, dated 2021).

For the compound `O=C(O)c1ccc(Cc2nc3c(Cc4ccccc4)[nH]c(-c4ccccc4)cn-3c2=O)cc1` [Compound 10], on NanoLuc® Luciferase, the “I (relative light units, ratio in comparison to native coelenterazine)” value turned out to be 0.142 and the “Half-life (signal half-life, ratio in comparison to native coelenterazine)” value came out at 1.02. In the assay with luciferase, the “RLU (@100 uM)” value is reported as 0.0034.
In the case of `Cn1nc(-c2cccs2)cc1Cc1nc2c(Cc3ccccc3)[nH]c(-c3ccccc3)cn-2c1=O` [Compound 12], at NanoLuc® Luciferase, the “I (relative light units, ratio in comparison to native coelenterazine)” value turned out to be 0.192 and the “Half-life (signal half-life, ratio in comparison to native coelenterazine)” value is 0.57. For the same compound, in the assay on luciferase, the “RLU (@100 uM)” value was 0.0046.
Turning to `O=c1c(Cc2ccc(F)cc2)nc2c(Cc3ccccc3)[nH]c(-c3ccccc3)cn1-2` [Compound 2], at NanoLuc® Luciferase, the “I (relative light units, ratio in comparison to native coelenterazine)” value is given as 40 and the “Half-life (signal half-life, ratio in comparison to native coelenterazine)” value is 0.16. Moreover, the “RLU (@100 uM)” value in the assay on luciferase is 0.96.
As to `Cn1cnnc1Sc1ccc(Cc2nc3c(Cc4ccccc4)[nH]c(-c4ccccc4)cn-3c2=O)o1` [Compound 33], in the assay with luciferase, the “RLU (@100 uM)” value is recorded as 0.017.
As for `COc1cccc(Cc2nc3c(Cc4ccccc4)[nH]c(-c4ccccc4)cn-3c2=O)c1` [Compound 17], the “RLU (@100 uM)” value in the assay on luciferase worked out at 0.83.
For `O=c1c(Cc2ccc(Cl)nc2)nc2c(Cc3ccccc3)[nH]c(-c3ccccc3)cn1-2` [Compound 69], at NanoLuc® Luciferase, the “I (relative light units, ratio in comparison to native coelenterazine)” value came out at 7.5 and the “Half-life (signal half-life, ratio in comparison to native coelenterazine)” value is reported as 0.35. In the assay on luciferase, the “RLU (@100 uM)” value amounted to 0.18.
Consider `CSc1cccc(Cc2nc3c(Cc4ccccc4)[nH]c(-c4ccccc4)cn-3c2=O)c1` [Compound 58], for which the “RLU (@100 uM)” value in the assay on luciferase was 0.47.
The same measure, in the same setting: under `NCc1cccc(Cc2nc3c(Cc4ccccc4)[nH]c(-c4ccccc4)cn-3c2=O)c1` [Compound 48] stands 0.0013.
With `COc1nc(Cl)ccc1Cc1nc2c(Cc3ccccc3)[nH]c(-c3ccccc3)cn-2c1=O` [Compound 74], at NanoLuc® Luciferase, the “I (relative light units, ratio in comparison to native coelenterazine)” value is recorded as 3 and the “Half-life (signal half-life, ratio in comparison to native coelenterazine)” value was found to be 1.09. Also, the “RLU (@100 uM)” value in the assay with luciferase stood at 0.072.
Taken in the same sequence, the figures for `Cc1noc(C)c1Cc1nc2c(Cc3ccccc3)[nH]c(-c3ccccc3)cn-2c1=O` [Compound 13] were 0.583, 2.64 and 0.014.
Regarding `CC(C)(C)OC(=O)Nc1cccc(Cc2nc3c(Cc4ccccc4)[nH]c(-c4ccccc4)cn-3c2=O)c1` [Compound 23], the “RLU (@100 uM)” value in the assay on luciferase was found to be 0.001.
On to `COc1ccc(Cc2nc3c(Cc4ccccc4)[nH]c(-c4ccccc4)cn-3c2=O)s1` [Compound 24], for which the “RLU (@100 uM)” value with luciferase turned out to be 0.68.
On the same count and under the same terms, under `O=c1c(C/C=C/c2ccccc2)nc2c(Cc3ccccc3)[nH]c(-c3ccccc3)cn1-2` [Compound 29] stands 0.13.
The same measure, in the same setting: under `COc1ccc(Cc2nc3c(Cc4ccccc4)[nH]c(-c4ccccc4)cn-3c2=O)cc1OC` [Compound 57] stands 0.063.
On to `Cn1nc(-c2ccc(Cc3nc4c(Cc5ccccc5)[nH]c(-c5ccccc5)cn-4c3=O)s2)cc1C(F)(F)F` [Compound 40], for which, in the assay with luciferase, the “RLU (@100 uM)” value was found to be 0.0042.
In the case of `CN(C)c1cccc(Cc2nc3c(Cc4ccccc4)[nH]c(-c4ccccc4)cn-3c2=O)c1` [Compound 51], the “RLU (@100 uM)” value with luciferase came out at 0.49.
The same measure, in the same setting: next, `COc1cc(Cc2nc3c(Cc4ccccc4)[nH]c(-c4ccccc4)cn-3c2=O)ccc1O` [Compound 32]: 0.052.
For the compound `O=c1c(Cc2ccc(-c3ccccc3)cc2)nc2c(Cc3ccccc3)[nH]c(-c3ccccc3)cn1-2` [Compound 26], in the assay on luciferase, the “RLU (@100 uM)” value is reported as 0.046.
Still for that read-out and setting: under `CCOc1cccc(Cc2nc3c(Cc4ccccc4)[nH]c(-c4ccccc4)cn-3c2=O)c1` [Compound 61] stands 0.49.
On to `Oc1ccc(Cc2nc3c(Cc4ccccc4)nc(-c4ccc(O)cc4)cn3c2O)cc1` [coelenterazine, reference compound], for which, on NanoLuc® Luciferase, the “I (relative light units, ratio in comparison to native coelenterazine)” value came to 1 and the “Half-life (signal half-life, ratio in comparison to native coelenterazine)” value came out at 1.
`COCc1cc(Cc2nc3c(Cc4ccccc4)[nH]c(-c4ccccc4)cn-3c2=O)ccc1OC` [Compound 50]: the “RLU (@100 uM)” value in the assay with luciferase is recorded as 0.023.
On the same count and under the same terms, next, `COCc1ccc(Cc2nc3c(Cc4ccccc4)[nH]c(-c4ccccc4)cn-3c2=O)o1` [Compound 42]: 0.52; `O=c1c(C=Cc2ccccc2)nc2c(Cc3ccccc3)[nH]c(-c3ccccc3)cn1-2` [Compound 86]: 0.0002; `O=c1c(Cc2cnccn2)nc2c(Cc3ccccc3)[nH]c(-c3ccccc3)cn1-2` [Compound 84]: 0.003.
Same read-out and setting: under `CC(C)(C)OC(=O)Nc1ccc(Cc2nc3c(Cc4ccccc4)[nH]c(-c4ccccc4)cn-3c2=O)cc1` [Compound 30] stands 0.001; under `O=c1c(Cc2c(F)c(F)c(F)c(F)c2F)nc2c(Cc3ccccc3)[nH]c(-c3ccccc3)cn1-2` [Compound 43], 0.052; under `CCCSc1ncc(Cc2nc3c(Cc4ccccc4)[nH]c(-c4ccccc4)cn-3c2=O)cn1` [Compound 56], 0.0098.
Regarding `Nc1cccc(Cc2nc3c(Cc4ccccc4)[nH]c(-c4ccccc4)cn-3c2=O)c1` [Compound 25], the “RLU (@100 uM)” value with luciferase worked out at 0.15.
Take `O=c1c(Cc2ccc3c(c2)OCO3)nc2c(Cc3ccccc3)[nH]c(-c3ccccc3)cn1-2` [Compound 59]: the “RLU (@100 uM)” value with luciferase amounted to 0.72.
For the compound `CCCCCCCCCCCCc1nc2c(Cc3ccccc3)[nH]c(-c3ccccc3)cn-2c1=O` [Compound 35], in the assay with luciferase, the “RLU (@100 uM)” value turned out to be 0.0005.
Same read-out and setting: next, `Cn1nc(C(F)(F)F)c(Cc2nc3c(Cc4ccccc4)[nH]c(-c4ccccc4)cn-3c2=O)c1Cl` [Compound 45]: 0.0012.
On to `O=c1c(CC2=Cc3ccccc3OC2)nc2c(Cc3ccccc3)[nH]c(-c3ccccc3)cn1-2` [Compound 27], for which the “RLU (@100 uM)” value in the assay on luciferase came to 0.1.
On to `O=c1c(Cc2ccc(C3CCCCC3)s2)nc2c(Cc3ccccc3)[nH]c(-c3ccccc3)cn1-2` [Compound 37], for which the “RLU (@100 uM)” value with luciferase is on record as 0.05.
As for `Cn1c(Cc2nc3c(Cc4ccccc4)[nH]c(-c4ccccc4)cn-3c2=O)cc2sccc21` [Compound 85], the “RLU (@100 uM)” value in the assay on luciferase was determined as 0.038.
As for `O=c1c(Cc2cc(C(F)(F)F)cc(C(F)(F)F)c2)nc2c(Cc3ccccc3)[nH]c(-c3ccccc3)cn1-2` [Compound 44], the “RLU (@100 uM)” value in the assay on luciferase is 0.019.
Consider `O=c1c(Cc2ccncc2)nc2c(Cc3ccccc3)[nH]c(-c3ccccc3)cn1-2` [Compound 36], for which, in the assay on luciferase, the “RLU (@100 uM)” value stood at 0.0017.
The same measure, in the same setting: next, `O=c1c(Cc2ccc(-c3cccs3)s2)nc2c(Cc3ccccc3)[nH]c(-c3ccccc3)cn1-2` [Compound 38]: 0.054; `COc1ccc(Cc2nc3c(Cc4ccccc4)[nH]c(-c4ccccc4)cn-3c2=O)cc1F` [Compound 21]: 0.32; `O=c1c(Cc2ccco2)nc2c(Cc3ccccc3)[nH]c(-c3ccccc3)cn1-2` [Compound C-1, 8-benzyl-2-(furan-2-ylmethyl)-6-phenylimidazo[1,2-a]pyrazin-3(7H)-one, reference compound]: 1.
As to `O=c1c(Cc2ccc(C(F)(F)F)o2)nc2c(Cc3ccccc3)[nH]c(-c3ccccc3)cn1-2` [Compound 41], in the assay with luciferase, the “RLU (@100 uM)” value was 0.82.
Same read-out and setting: next, `CCOP(=O)(OCC)c1nc2c(Cc3ccccc3)[nH]c(-c3ccccc3)cn-2c1=O` [Compound 1, diethyl (8-benzyl-3-oxo-6-phenyl-3,7-dihydroimidazo[1,2-a]pyrazin-2-yl)phosphonate]: 0.00048.
Consider `CN(C)Oc1cccc(Cc2nc3c(Cc4ccccc4)[nH]c(-c4ccccc4)cn-3c2=O)c1` [Compound 60], for which, in the assay on luciferase, the “RLU (@100 uM)” value is reported as 0.00038.
Same read-out and setting: next, `COCCOc1cccc(Cc2nc3c(Cc4ccccc4)[nH]c(-c4ccccc4)cn-3c2=O)c1` [Compound 62]: 0.057; `O=c1c(Cc2cccc(CO)c2)nc2c(Cc3ccccc3)[nH]c(-c3ccccc3)cn1-2` [Compound 54]: 0.04; `O=c1c(Cc2ccc(-c3ccccn3)s2)nc2c(Cc3ccccc3)[nH]c(-c3ccccc3)cn1-2` [Compound 34]: 0.02.
With `COCc1cccc(Cc2nc3c(Cc4ccccc4)[nH]c(-c4ccccc4)cn-3c2=O)c1` [Compound 53], the “RLU (@100 uM)” value with luciferase is given as 0.47.
`C=CCOc1ccc(Cc2nc3c(Cc4ccccc4)[nH]c(-c4ccccc4)cn-3c2=O)cc1OC` [Compound 31]: the “RLU (@100 uM)” value in the assay with luciferase turned out to be 0.054.
The same measure, in the same setting: next, `O=c1c(Cc2cccc3c2oc2ccccc23)nc2c(Cc3ccccc3)[nH]c(-c3ccccc3)cn1-2` [Compound 28]: 0.01; `CC(C)Cc1ccc(Cc2nc3c(Cc4ccccc4)[nH]c(-c4ccccc4)cn-3c2=O)s1` [Compound 39]: 0.29.
The same measure, in the same setting: next, `CS(=O)(=O)Nc1cccc(Cc2nc3c(Cc4ccccc4)[nH]c(-c4ccccc4)cn-3c2=O)c1` [Compound 49]: 0.002; `COc1cc(Cc2nc3c(Cc4ccccc4)[nH]c(-c4ccccc4)cn-3c2=O)ccc1F` [Compound 18]: 0.4.
On the same count and under the same terms, under `COCc1ccc(Cc2nc3c(Cc4ccccc4)[nH]c(-c4ccccc4)cn-3c2=O)s1` [Compound 52] stands 0.45; under `O=C(O)c1cccc(Cc2nc3c(Cc4ccccc4)[nH]c(-c4ccccc4)cn-3c2=O)c1` [Compound 47], 0.013.
